Columns and labels:
[1] = test system: large crabgrass; test: Test F preemergence; format: in vivo, Digitaria sanguinalis
Source text: (§1) Seeds of plant species selected from corn (Zea mays), soybean (Glycine max), velvetleaf (Abutilon theophrasti), lambsquarters (Chenopodium album), wild poinsettia (Euphorbia heterophylla), pigweed, palmer (palmer pigweed, Amaranthus palmeri), common waterhemp (Amaranthus rudis), surinam grass (Brachiaria decumbens), large crabgrass (Digitaria sanguinalis), crabgrass, Brazil (Brazilian crabgrass, Digitaria horizontalis), fall panicum (Panicum dichotomiflorum), giant foxtail (Setaria faberii), green foxtail (Setaria viridis), goosegrass (Eleusine indica), johnsongrass (Sorghum halepense), common ragweed (Ambrosia elation), barnyardgrass (Echinochloa crus-galli), southern sandbur (Cenchrus echinatus), arrowleaf sida (Sida rhombifolia), Italian ryegrass (Lolium multiflorum), dayflower, VA (Virginia (VA) dayflower, Commelina virginica), field bindweed (Convolvulus arvensis), cocklebur (common cocklebur, Xanthium strumarium), morningglory (Ipomoea coccinea), nightshade (eastern black nightshade, Solanum ptycanthum), kochia (Kochia scoparia), yellow nutsedge (Cyperus esculentus), and hairy beggarticks (Bidens pilosa), were planted into a silt loam soil and treated preemergence with test chemicals formulated in a non-phytotoxic solvent mixture which included a surfactant.
(§2) At the same time, plants from these crop and weed species and also horseweed (Canada horseweed, Conyza canadensis), smartweed (ladysthumb smartweed, Polygonum persicaria), waterhemp_RES1, (ALS & Triazine resistant common waterhemp, Amaranthus rudis), and waterhemp_RES2, (ALS & HPPD resistant common waterhemp, Amaranthus rudis) were treated with postemergence applications of test chemicals formulated in the same manner. Plants ranged in height from 2 to 18 cm for postemergence treatments (1- to 4-leaf stage). Treated plants and controls were maintained in a greenhouse for 14 to 21 days, after which time all species were compared to controls and visually evaluated. Plant response ratings, summarized in Table F, are based on a scale of 0 to 100 where 0 is no effect and 100 is complete control. A dash (-) response means no test result.

[2] = test system: southern sandbur; test: Test F preemergence; format: in vivo, Cenchrus echinatus
Source text: as §1, §2

[3] = test system: cupgrass, woolly; test: Test C postemergence; format: in vivo, Eriochloa villosa; settings: for Cupgrass, Woolly plant response rating: scale 0 to 100
Source text: (§3) Seeds of plant species selected from blackgrass (Alopecurus myosuroides), ryegrass, Italian (Italian ryegrass, Lolium multiflorum), wheat (winter wheat, Triticum aestivum), galium (catchweed bedstraw, Galium aparine), corn (Zea mays), crabgrass, large (large crabgrass, Digitaria sanguinalis), foxtail, giant (giant foxtail, Setaria faberii), johnsongrass (Sorghum halepense), lambsquarters (Chenopodium album), morningglory (Ipomoea coccinea), nutsedge, yellow (yellow nutsedge, Cyperus esculentus), pigweed (redroot pigweed, Amaranthus retroflexus), ragweed (common ragweed, Ambrosia elation), soybean (Glycine max), barnyardgrass (Echinochloa crus-galli), oilseed rape (Brassica napus), waterhemp (common waterhemp, Amaranthus rudis), oat, wild (wild oat, Avena fatua), kochia (Kochia scoparia), Surinam grass (Brachiaria decumbens), foxtail, green (green foxtail, Setaria viridis), goosegrass (Eleusine indica), bromegrass, downy (downy bromegrass, Bromus tectorum), nightshade (eastern black nightshade, Solanum ptycanthum), cocklebur (common cocklebur, Xanthium strumarium), cupgrass, woolly (woolly cupgrass, Eriochloa villosa), bermudagrass (Cynodon dactylon), sunflower, (common oilseed sunflower, Helianthus annuus), Russian thistle (Salsola kali), and velvetleaf (Abutilon theophrasti) were planted into a blend of loam soil and sand and treated preemergence with test chemicals formulated in a non-phytotoxic solvent mixture which included a surfactant.
(§4) At the same time, plants selected from these crop and weed species and also chickweed (common chickweed, Stellaria media), canarygrass (littleseed canarygrass, Phalaris minor), and deadnettle (henbit deadnettle, Lamium amplexicaule), were planted in pots containing Redi-Earth® planting medium (Scotts Company, 14111 Scottslawn Road, Marysville, Ohio 43041) comprising spaghnum peat moss, vermiculite, wetting agent and starter nutrients and treated with postemergence applications of test chemicals formulated in the same manner. Plants ranged in height from 2 to 18 cm (1- to 4-leaf stage) for postemergence treatments. Treated plants and controls were maintained in a greenhouse for 13 to 15 days, after which time all species were compared to controls and visually evaluated. Plant response ratings, summarized in Table C, are based on a scale of 0 to 100 where 0 is no effect and 100 is complete control. A dash (-) response means no test result.

[4] = test system: foxtail, green; test: Test C preemergence; format: in vivo, Setaria viridis; settings: for Plant response rating (scale of 0 to 100), Foxtail, Green: Preemergence, 250 g ai/ha; for Foxtail, Green plant response rating / Plant response rating, Foxtail, Green: preemergence; for Plant response rating, Foxtail, Green: 62 g ai/ha, scale 0 to 100, 0 = no effect, 100 = complete control
Source text: as §3, §4

[5] = test system: nightshade; test: Test C preemergence; format: in vivo, Solanum ptycanthum; settings: for Plant response rating (scale of 0 to 100), Nightshade: Preemergence, 250 g ai/ha; for Nightshade plant response rating / Plant response rating, Nightshade: preemergence; for Plant response rating, Nightshade: 62 g ai/ha, scale 0 to 100, 0 = no effect, 100 = complete control
Source text: as §3, §4

[6] = test system: Russian thistle; test: Test D postemergence; format: in vivo, Salsola kali; settings: scale 0 to 100; for Plant response rating, Russian Thistle: 16 g ai/ha
Source text: Seeds of plant species selected from bluegrass (annual bluegrass, Poa annua), blackgrass (Alopecurus myosuroides), canarygrass (littleseed canarygrass, Phalaris minor), chickweed (common chickweed, Stellaria media), galium (catchweed bedstraw, Galium aparine), bromegrass, downy (downy bromegrass, Bromus tectorum), field poppy (Papaver rhoeas), field violet (Viola arvensis), foxtail, green (green foxtail, Setaria viridis), deadnettle (henbit deadnettle, Lamium amplexicaule), ryegrass, Italian (Italian ryegrass, Lolium multiflorum), kochia (Kochia scoparia), lambsquarters (Chenopodium album), oilseed rape (Brassica napus), pigweed (redroot pigweed, Amaranthus retroflexus), chamomile (scentless chamomile, Matricaria inodora), speedwell (bird's-eye speedwell, Veronica persica), barley, spring (spring barley, Hordeum vulgare), wheat, spring (spring wheat, Triticum aestivum), buckwheat, wild (wild buckwheat, Polygonum convolvulus), mustard, wild (wild mustard, Sinapis arvensis), oat, wild (wild oat, Avena fatua), radish, wild (wild radish, Raphanus raphanistrum), windgrass (Apera spica-venti), Russian thistle (Salsola kali), barley, winter (winter barley, Hordeum vulgare), and wheat, winter (winter wheat, Triticum aestivum) were planted into a silt loam soil and treated preemergence with test chemicals formulated in a non-phytotoxic solvent mixture which included a surfactant.
At the same time, these species were planted in pots containing Redi-Earth® planting medium (Scotts Company, 14111 Scottslawn Road, Marysville, Ohio 43041) comprising spaghnum peat moss, vermiculite, wetting agent and starter nutrients and treated with postemergence applications of the test chemicals formulated in the same manner. Plants ranged in height from 2 to 18 cm (1- to 4-leaf stage). Treated plants and controls were maintained in a controlled growth environment for 14 to 21 days after which time all species were compared to controls and visually evaluated. Plant response ratings, summarized in Table D, are based on a scale of 0 to 100 where 0 is no effect and 100 is complete control. A dash (-) response means no test result.

[7] = Preemergence, 31 g ai/ha, scale 0 to 100
[8] = Preemergence, 62 g ai/ha, scale 0 to 100
[9] = Preemergence, 125 g ai/ha, scale 0 to 100
[10] = preemergence, 8 g ai/ha, scale 0 to 100, 100 is complete control
[11] = preemergence, 16 g ai/ha, scale 0 to 100, 100 is complete control
[12] = Preemergence, 250 g ai/ha, scale 0 to 100
[13] = postemergence, 250 g ai/ha, scale 0 to 100 (0 no effect, 100 complete control)
[14] = postemergence, 62 g ai/ha, scale 0 to 100, 0 no effect, 100 complete control
[15] = postemergence, 125 g ai/ha, scale 0 to 100, 0 no effect, 100 complete control
[16] = 31 g ai/ha, scale 0 to 100 (0 no effect, 100 complete control), 13 to 15 days
[17] = 125 g ai/ha, scale 0 to 100, 0 is no effect, 100 is complete control

Compound	Plant response rating, Large Crabgrass [1, 8]	Plant response rating, Large Crabgrass [1, 9]	Plant response rating, Southern Sandbur [2, 8]	Plant response rating, Southern Sandbur [2, 9]	Cupgrass, Woolly plant response rating ([3]; Postemergence, 31 g ai/ha)	Plant response rating, Cupgrass, Woolly [3, 13]	Plant response rating, Cupgrass, Woolly [3, 14]	Plant response rating, Cupgrass, Woolly [3, 15]	Plant response rating (scale of 0 to 100), Foxtail, Green [4]	Foxtail, Green plant response rating [4, 16]	Plant response rating, Foxtail, Green ([4]; 13 to 15 days)	Foxtail, Green plant response rating [4, 17]	Plant response rating (scale of 0 to 100), Nightshade [5]	Nightshade plant response rating [5, 16]	Plant response rating, Nightshade ([5]; 13 to 15 days)	Nightshade plant response rating [5, 17]	Plant response rating, Russian Thistle ([6]; Postemergence)	Russian Thistle plant response rating ([6]; Postemergence, 31 g ai/ha)	Russian Thistle plant response rating ([6]; Postemergence, 125 g ai/ha)	Russian Thistle plant response rating ([6]; postemergence, 62 g ai/ha)	other results
CCc1cc(-c2ccc(C(F)(F)F)cc2)nn1Cc1ccnc(C(F)(F)F)c1 [Compound 110]	75	85	35	75																	Plant response rating, Large Crabgrass [1, 7]: 10; Plant response rating, Large Crabgrass [1, 10]: 5; Plant response rating, Large Crabgrass [1, 11]: 5; Plant response rating, Southern Sandbur [2, 7]: 20; Plant response rating, Southern Sandbur [2, 10]: 0; Plant response rating, Southern Sandbur [2, 11]: 20
CCc1cc(C(=O)NCC(F)(F)F)nn1Cc1ccnc(Br)c1 [Compound 224]	98	100	5	35																	Plant response rating, Large Crabgrass [1, 12]: 100; Plant response rating, Southern Sandbur [2, 12]: 15
CCCc1cc(C(=O)NC(C)C)nn1Cc1cc(C(F)(F)F)nn1C [Compound 201]	70	100	0	30																	Plant response rating, Large Crabgrass [1, 12]: 100; Plant response rating, Large Crabgrass [1, 11]: 0; Plant response rating, Large Crabgrass ([1]; preemergence, scale 0 to 100, 100 is complete control): 35; Plant response rating, Southern Sandbur [2, 12]: 75; Plant response rating, Southern Sandbur [2, 11]: 0
CCc1cc(C(=O)NCC(F)(F)F)nn1Cc1cccc(OC(F)(F)F)c1 [Compound 20]					5	15	10	15													
CCc1cc(C(=O)NOC(C)C)nn1Cc1cccc(OC(F)(F)F)c1 [Compound 70]					0	20	0	15	98	15	95	95	98	70	98	98	0	80	85	80	Russian Thistle plant response rating ([6]; Postemergence, 250 g ai/ha): 90
CCc1cc(C(=O)NC2CC2)nn1Cc1ccnc(C(F)(F)F)c1 [Compound 76]																	5	5	10	5	Russian Thistle plant response rating ([6]; Postemergence, 250 g ai/ha): 40
CCCNC(=O)c1cc(CC)n(Cc2cccc(OC(F)(F)F)c2)n1 [Compound 27]					0	20	5	10													
CCONC(=O)c1cc(CC)n(Cc2cccc(OC(F)(F)F)c2)n1 [Compound 72]					5	15		10	98	30	85	90	100	75	98	98					Cupgrass, Woolly plant response rating ([3]; postemergence, 62 g ai/ha): 10
Cc1cc(C(=O)NCC(F)(F)F)nn1Cc1ccnc(C(F)(F)F)c1 [Compound 74]					5	20		15	95	85	95	95	98	90	90	95	0	0	60	0	Cupgrass, Woolly plant response rating ([3]; postemergence, 62 g ai/ha): 10

From US20150105252A1, “SUBSTITUTED PYRAZOLES AS HERBICIDES” (E I DU PONT DE NEMOURS AND COMPANY, priority 2013, published 2015)
